A short description of assay [1]: open label observation for control of heart burn in volunteers. The following applies: open label observations in people. The format is in vivo, human. From the text:
The preferred ingredients of the dietary supplement formulations for preventing or treating or managing upper digestive disorders referred to in this patent including but not limited to acid related disease, H. pylori infection and ulcerogenic medications, drugs or substances such as alcohol, tobacco smoke or any other damaging agent that is ingested or absorbed in to the body that may cause upper digestive disturbance are listed in one formulation that has undergone open label observation for the control of the symptom heart burn in six volunteers with recurrent heart burn and this formulation was made in several batches of a chewable tablet with the following ingredients that have been modified from time to time. These chewable tablets contain the following ingredients with amounts listed in two chewable tablets. The range of the ingredients has been made in different dosage amounts of each ingredient and tested in at least two volunteers for each of six batches of varying dosage of ingredients. Each batch consistently relieved symptoms of mild moderate or severe heart burn in open labeled observations in volunteers with symptoms of gastresophageal reflux disease.

The subject of another assay is stomach acid secretion. The following applies: rat model, cited from earlier work.
The subject of a further assay is gastric acid secretion. The following applies: cited from earlier work.

The source of these data is patent publication US20050238731A1, “Composition and method for treating the effects of diseases and maladies of the upper digestive tract” (priority 2003, published 2005).

For `O=c1oc2c(O)c(O)cc3c(=O)oc4c(O)c(O)cc1c4c23` [ellagic acid], the dyspepsia and heartburn result in assay [1] is “has helped people with dyspepsia and heartburn”. For the same compound, the stomach acid secretion entry in the assay on stomach acid secretion (at a certain dosage level) was “stomach acid secretion was blocked”. The stomach ulcers entry with stomach acid secretion was “ulcers could be prevented in part”.
For the compound salvianolic acid, in the assay with gastric acid secretion (animals exposed to cold water immersion or restraint), the “development of stomach ulcers” value was “prevents the development of stomach ulcers”. Further, the gastric acid secretion result with gastric acid secretion (animals) is on record as “reduce gastric acid secretion”. Further, in the assay on gastric acid secretion (pylorus-ligated animals), the “formation of gastric ulcers” value is given as “reduce the formation of gastric ulcers”.
